The text below walks through data of paper PMC3830731 (ACS chemical biology, 2013).

Assay [1] has as its target T1, MtmOIV (Streptomyces argillaceus, UniProt Q194P4). Nature of the assay: X-ray crystal structure, […] Å. Type of assay: binding. The following applies: non-covalently bound.
The target of assay [2] is MtmOIV (Streptomyces argillaceus, UniProt Q194P4, R173A, form not given). Nature of the assay: NADPH oxidation, fluorescence. To be noted: 2 mM premithramycin B, 0.1 mM FAD, O2; 100 mM Tris-HCl pH 8.25, 30 °C. Type of assay: biochemical.
Assay [3] has as its target T1, MtmOIV. Nature of the assay: NADPH oxidation, fluorescence. The following applies: 2 mM premithramycin B, 0.1 mM FAD, O2; 100 mM Tris-HCl pH 8.25, 30 °C. Type of assay: biochemical.

On to `Cc1cc2nc3c(=O)[nH]c(=O)nc-3n(C[C@H](O)[C@H](O)[C@H](O)COP(=O)(O)OP(=O)(O)OC[C@H]3O[C@@H](n4cnc5c(N)ncnc54)[C@H](O)[C@@H]3O)c2cc1C` [FAD], for which the “X-ray crystal structure, 2.0 Å” value on MtmOIV [1] is recorded as “a single non-covalently bound FAD cofactor”.

For the compound `NC(=O)C1=CN([C@@H]2O[C@H](COP(=O)(O)OP(=O)(O)OC[C@H]3O[C@@H](n4cnc5c(N)ncnc54)[C@H](OP(=O)(O)O)[C@@H]3O)[C@@H](O)[C@H]2O)C=CC1` [NADPH], the Km (commonly the concentration of substrate that gives half-maximal velocity) at MtmOIV [2] turned out to be 528 ± 63 µM; at MtmOIV [3], 372 ± 68 µM.
